Assay results as given in patent US7205119B2, “HA-1 antigen” (Rijksuniversiteit te Leiden, priority 1997, dated 2007).
Where no end group is shown, it is not given here.

Assays:
[1] = system: recombinant HLA-A2.1 and b2-microglobulin; test: HLA-A2.1 peptide binding assay (inhibition of binding of fluorescent standard peptide, cell free); parameters: species or system human; details: for HLA-A2.1 binder class: class assigned from IC50
Procedure: (§1) FIG. 4a. Binding of HA-1^H and HA-1^R peptides to HLA-A2.1. The binding of HA-1^H and HA-1^R peptides were assayed for their ability to inhibit the binding of fluorescent peptide […] (SEQ ID NO: 17) to recombinant HLA-A2.1 and b2-microglobulin in a cell free peptide binding assay. One representative experiment is shown. […] (FIG. 4b.) Reconstitution assay with different concentrations of synthetic HA-1^R peptide with HA-1 specific T cells. The HA-1^R peptide was titrated and preincubated with T2 cells. Three HA-1 specific T cell clones, 5W38, 3HA15 and clone 15 were added and a 4 hr ^51Cr-release assay was performed. Background lysis of T2 by the CTL in the absence of any peptide was for 3HA15 4%, for clone 15 10% and for 5W38 2%. Positive control lysis was for 3HA15 46%, for clone 15 47% and 5W38 48%.
Reconstitution and HLA-A2.1 binding assays were performed to determine the capacity of HA-1^R peptide […] (SEQ ID NO: 5) to bind to HLA-A2.1 and to be recognized by the HA-1 specific T cell clones. […] Different concentrations of […] (SEQ ID NO: 5) were tested in a ^51Cr-release assay with three HA-1 specific T cell clones.
HLA-A2.1 peptide binding assay. A quantitative assay for HLA-A2.1 binding peptides based on the inhibition of binding of the fluorescent labeled standard peptide Hbc 18–27 F to C6 ([…]) (SEQ ID NO: 17) to recombinant HLA-A2.1 protein and B2-microglobulin was used^26,27. In short, HLA-A2.1 concentrations yielding approximately 40–60% bound fluorescent standard peptide were used with 15 pmol/well (150 nM) B2-microglobulin (Sigma). Various doses of the test peptides were coincubated with 100 fmol/well (1 nM) fluorescent standard peptide, HLA-A2.1 and B2-microglobulin for 1 day at room temperature in the dark in a volume of […] in assay.buffer. The percent of MHC-bound fluorescence was determined by gel filtration and the 50% inhibitory dose was deduced for each peptide using one-site competition non-linear regression analysis with the prismgraph software. […]

[2] = system: HA-1 specific T cell clones 3HA15, clone 15 and 5W38 (T2 target cells); test: 51Cr-release reconstitution assay (CML assay) with peptide-loaded T2 cells and HA-1 specific CTL clones; format: cell-based, human
From the text: FIG. 2. Sequencing of mH HA-1 peptide by tandem mass spectrometry. (FIG. 2a.) Collision activation dissociation mass spectrum of peptide candidate with m/z of 513. (FIG. 2b.) Reconstitution assay with different concentrations of synthetic mH HA-1 peptide with three HA-1 specific T cell clones, 3HA15, clone 15 and 5W38. Background lysis of T2 by the CTL in the absence of any peptide was for 3HA15 4%, for clone 15 10% and for 5W38 2%. Positive control lysis was for 3HA15 46%, for clone 15 47% and 5W38 48%.
as §1, with “48%. […]” for “48%.”

## VLHDDLLEA
[1]
  HLA-A2.1 binder class: high affinity binders

## VLRDDLLEA
[2]; clone 3HA15 only (one out of three clones showed recognition)
  peptide concentration needed for recognition relative to that for the HA-1^H peptide: 1000 times
[1]
  fold lower binding affinity for HLA-A2.1 versus HA-1^H peptide: 10 fold
  HLA-A2.1 binder class: intermediate binders

## YXTDRVMTV [peptide candidate m/z 550; X stands for Isoleucine or Leucine]
[2]; results not shown
  reconstitution of the HA-1 epitope by synthetic peptide: not able to reconstitute the HA-1 epitope
